The source of these data is patent US20130244953A1, “DUAL SECURED THERAPEUTIC PEPTIDE DELIVERY SYSTEM” (priority 2011, published 2013).

For the series, the system named is rat red blood cells. Nature of the series: Hemolytic assay. Format: cell-based. The conditions noted are these: 1 μM melittin, 37° C., 1 hour, pH 7.4. The protocol:
Hemolytic assay: Rat blood was used to compare hemolytic effects of free melittin, SSNS, and DSNS using DI water as positive control and PBS as negative control. Briefly, rat red blood cells were washed using 210 mM sodium chloride and dispersed in phosphate buffer saline (pH 7.4), To the SSNS, DSNS and free melittin corresponding to melittin concentration of 0.1 to 10 μM, the same amount of red blood cells was added and incubated at 37° C. for 1 hour. Following, each sample was centrifuged at 300 rcf for 2 min. and the optical density of supernatant was measured (λ=405 nm.) for the quantification of lysed cell amount. The results are shown graphically in FIG. 5 and in the corresponding photographs of FIG. 6.

As to `CC[C@H](C)[C@H](NC(=O)CN)C(=O)NCC(=O)N[C@@H](C)C(=O)N[C@H](C(=O)N[C@@H](CC(C)C)C(=O)N[C@@H](CCCCN)C(=O)N[C@H](C(=O)N[C@@H](CC(C)C)C(=O)N[C@H](C(=O)N[C@H](C(=O)NCC(=O)N[C@@H](CC(C)C)C(=O)N1CCC[C@H]1C(=O)N[C@@H](C)C(=O)N[C@@H](CC(C)C)C(=O)N[C@H](C(=O)N[C@@H](CO)C(=O)N[C@@H](Cc1c[nH]c2ccccc12)C(=O)N[C@H](C(=O)N[C@@H](CCCCN)C(=O)N[C@@H](CCCNC(=N)N)C(=O)N[C@@H](CCCCN)C(=O)N[C@@H](CCCNC(=N)N)C(=O)N[C@@H](CCC(N)=O)C(=O)N[C@@H](CCC(N)=O)C(N)=O)[C@@H](C)CC)[C@@H](C)CC)[C@@H](C)O)[C@@H](C)O)C(C)C)C(C)C` [free melittin, melittin], the “red blood cell lysis” value is “completely lysed the cells”.
